Activity calls are given as the source filed them. The calls are words filed in the database; no cut-off is given here.
Legend:
[1] = target: CYP2C9 (Homo sapiens, UniProt P11712); experiment: Time dependent inhibition of CYP2C9 (unknown origin) at 30 uM measured after 30 mins relative to control; type: ADME; conditions: read-out: TDI
[2] = Cmax in human (healthy individuals) at 270 mg, single oral dose measured uo to 120 hrs; type: ADME; conditions: in vivo
[3] = Cmax in human (healthy individuals) at 10 mg, single oral dose measured uo to 120 hrs; type: ADME; conditions: in vivo
[4] = Clearance in Sprague-Dawley rat at 0.5 mg/kg, iv measured up to 24 hrs by LC-MS/MS analysis; type: ADME, organism-based; conditions: in vivo
[5] = AUC (0 to 120 hrs) in human (healthy individuals) at 90 mg, single oral dose; type: ADME; conditions: in vivo
[6] = Tmax in human (healthy individuals) at 30 mg, single oral dose; type: ADME; conditions: in vivo
[7] = Apparent permeability of compound from apical to basolateral side in human Caco-2 cells; type: ADME, cell-based; conditions: read-out: permeability
[8] = target: Cytochrome P450 2C19 (Homo sapiens, UniProt P33261); experiment: Inhibition of CYP2C19 (unknown origin) measured after 30 mins; type: ADME
Chain of Cytochrome P450 2C19 (P33261 whole entry): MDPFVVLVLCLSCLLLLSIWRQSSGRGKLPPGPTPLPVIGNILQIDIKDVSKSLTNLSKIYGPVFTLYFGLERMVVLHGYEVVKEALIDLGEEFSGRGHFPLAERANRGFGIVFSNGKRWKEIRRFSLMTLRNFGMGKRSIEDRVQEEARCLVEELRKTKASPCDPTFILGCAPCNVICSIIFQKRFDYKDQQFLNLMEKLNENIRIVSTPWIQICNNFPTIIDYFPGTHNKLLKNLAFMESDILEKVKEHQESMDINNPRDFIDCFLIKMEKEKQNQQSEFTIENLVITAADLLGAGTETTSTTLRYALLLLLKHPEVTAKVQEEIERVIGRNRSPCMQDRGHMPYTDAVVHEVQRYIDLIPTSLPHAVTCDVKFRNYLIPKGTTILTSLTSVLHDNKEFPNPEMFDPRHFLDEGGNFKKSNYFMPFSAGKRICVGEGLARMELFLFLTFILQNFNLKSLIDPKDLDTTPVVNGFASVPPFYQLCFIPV

[9] = target: T1, Cytochrome P450 2B6 (Homo sapiens, UniProt P20813); experiment: Inhibition of CYP2B6 (unknown origin) measured after 30 mins; type: ADME
T1 sequence (P20813 whole entry): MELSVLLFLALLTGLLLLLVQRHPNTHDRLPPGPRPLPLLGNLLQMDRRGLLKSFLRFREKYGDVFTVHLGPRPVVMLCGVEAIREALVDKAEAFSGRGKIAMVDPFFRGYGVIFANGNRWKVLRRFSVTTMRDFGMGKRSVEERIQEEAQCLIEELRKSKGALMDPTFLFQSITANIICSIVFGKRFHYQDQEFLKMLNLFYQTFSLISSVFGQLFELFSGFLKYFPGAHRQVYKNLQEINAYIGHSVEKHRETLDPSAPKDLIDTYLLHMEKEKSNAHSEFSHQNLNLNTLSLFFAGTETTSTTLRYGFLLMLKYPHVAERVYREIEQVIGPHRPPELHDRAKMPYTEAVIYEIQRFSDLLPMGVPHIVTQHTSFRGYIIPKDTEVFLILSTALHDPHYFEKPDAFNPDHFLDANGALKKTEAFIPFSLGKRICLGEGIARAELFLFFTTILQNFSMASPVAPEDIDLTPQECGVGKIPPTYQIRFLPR

[10] = target: CYP3A4 (Homo sapiens, UniProt P08684); experiment: Time dependent inhibition of CYP3A4 (unknown origin) using testosterone as substrate at 30 uM measured after 30 mins relative to control; type: ADME; conditions: probe testosterone, read-out: TDI
Chain of CYP3A4 (P08684 whole entry): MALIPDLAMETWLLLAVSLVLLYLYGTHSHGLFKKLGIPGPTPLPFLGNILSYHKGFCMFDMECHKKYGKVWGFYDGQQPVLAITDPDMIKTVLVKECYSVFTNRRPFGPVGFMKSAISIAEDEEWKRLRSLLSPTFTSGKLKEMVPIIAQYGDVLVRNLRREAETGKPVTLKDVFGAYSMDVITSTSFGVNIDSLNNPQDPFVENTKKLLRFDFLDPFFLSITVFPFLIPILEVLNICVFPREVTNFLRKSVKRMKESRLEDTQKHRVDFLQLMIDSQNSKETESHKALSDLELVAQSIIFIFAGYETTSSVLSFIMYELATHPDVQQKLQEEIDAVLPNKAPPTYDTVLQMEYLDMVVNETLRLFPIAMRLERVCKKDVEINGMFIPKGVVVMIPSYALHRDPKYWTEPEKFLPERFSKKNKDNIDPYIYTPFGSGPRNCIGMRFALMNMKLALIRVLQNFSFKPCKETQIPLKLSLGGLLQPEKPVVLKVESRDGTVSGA

[11] = AUC (0 to 24 hrs) in human (healthy individuals) at 270 mg, single oral dose; type: ADME; conditions: in vivo
[12] = AUC (0 to 120 hrs) in human (healthy individuals) at 270 mg, single oral dose; type: ADME; conditions: in vivo
[13] = target: T2, Cytochrome P450 3A4 (Homo sapiens, UniProt P08684); experiment: Inhibition of CYP3A4 (unknown origin) using midazolam as substrate measured after 30 mins; type: ADME
T2 sequence (P08684 whole entry): as above

[14] = Cmax in human (healthy individuals) at 30 mg, single oral dose measured uo to 120 hrs; type: ADME; conditions: in vivo
[15] = target: CYP2D6 (Homo sapiens, UniProt P10635); experiment: Time dependent inhibition of CYP2D6 (unknown origin) at 30 uM measured after 30 mins relative to control; type: ADME; conditions: read-out: TDI
Chain of CYP2D6 (P10635 whole entry): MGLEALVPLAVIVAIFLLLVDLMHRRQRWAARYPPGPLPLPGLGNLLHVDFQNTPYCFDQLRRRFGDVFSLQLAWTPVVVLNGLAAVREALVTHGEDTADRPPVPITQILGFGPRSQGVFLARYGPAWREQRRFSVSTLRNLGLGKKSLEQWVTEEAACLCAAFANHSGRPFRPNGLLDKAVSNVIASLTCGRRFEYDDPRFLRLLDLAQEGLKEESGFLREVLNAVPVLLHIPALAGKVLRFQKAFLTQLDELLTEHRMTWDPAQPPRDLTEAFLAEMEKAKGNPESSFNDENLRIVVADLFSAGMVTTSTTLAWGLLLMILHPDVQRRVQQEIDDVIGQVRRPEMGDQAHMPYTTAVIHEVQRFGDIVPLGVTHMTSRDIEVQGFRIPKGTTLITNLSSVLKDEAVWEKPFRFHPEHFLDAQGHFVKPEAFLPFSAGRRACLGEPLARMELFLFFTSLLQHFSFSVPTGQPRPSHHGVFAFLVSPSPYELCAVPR

[16] = AUC (0 to 120 hrs) in human (healthy individuals) at 10 mg, single oral dose; type: ADME; conditions: in vivo
[17] = system: 786-0; experiment: Anti-tumor activity against human 786-0 cells xenografted in mouse model assessed as increase in soluble AXL level in plasma at 30 mg/kg, po once daily for 15 days; type: functional, organism-based; conditions: time 15.0 day
[18] = target: Cytochrome P450 2C9 (Homo sapiens, UniProt P11712); experiment: Inhibition of CYP2C9 (unknown origin) measured after 30 mins; type: ADME
Chain of Cytochrome P450 2C9 (P11712 whole entry): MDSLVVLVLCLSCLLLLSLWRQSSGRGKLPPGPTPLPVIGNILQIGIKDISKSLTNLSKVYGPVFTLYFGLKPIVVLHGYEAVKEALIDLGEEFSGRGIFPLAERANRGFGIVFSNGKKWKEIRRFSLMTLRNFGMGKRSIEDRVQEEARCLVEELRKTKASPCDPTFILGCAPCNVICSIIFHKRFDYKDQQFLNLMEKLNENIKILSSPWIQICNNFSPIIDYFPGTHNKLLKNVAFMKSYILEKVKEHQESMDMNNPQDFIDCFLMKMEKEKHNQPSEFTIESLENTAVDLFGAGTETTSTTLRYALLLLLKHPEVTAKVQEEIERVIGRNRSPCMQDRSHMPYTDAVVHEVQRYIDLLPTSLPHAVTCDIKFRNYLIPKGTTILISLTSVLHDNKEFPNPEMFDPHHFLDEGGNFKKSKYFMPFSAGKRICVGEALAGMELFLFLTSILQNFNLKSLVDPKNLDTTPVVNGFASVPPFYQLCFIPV

[19] = Tmax in human (healthy individuals) at 90 mg, single oral dose; type: ADME; conditions: in vivo
[20] = target: hERG (KCNH2) (Homo sapiens, UniProt Q12809); experiment: Inhibition of hERG at 10 uM by high throughput cell based patch clamp assay; type: toxicity
Chain of hERG (KCNH2) (Q12809 whole entry): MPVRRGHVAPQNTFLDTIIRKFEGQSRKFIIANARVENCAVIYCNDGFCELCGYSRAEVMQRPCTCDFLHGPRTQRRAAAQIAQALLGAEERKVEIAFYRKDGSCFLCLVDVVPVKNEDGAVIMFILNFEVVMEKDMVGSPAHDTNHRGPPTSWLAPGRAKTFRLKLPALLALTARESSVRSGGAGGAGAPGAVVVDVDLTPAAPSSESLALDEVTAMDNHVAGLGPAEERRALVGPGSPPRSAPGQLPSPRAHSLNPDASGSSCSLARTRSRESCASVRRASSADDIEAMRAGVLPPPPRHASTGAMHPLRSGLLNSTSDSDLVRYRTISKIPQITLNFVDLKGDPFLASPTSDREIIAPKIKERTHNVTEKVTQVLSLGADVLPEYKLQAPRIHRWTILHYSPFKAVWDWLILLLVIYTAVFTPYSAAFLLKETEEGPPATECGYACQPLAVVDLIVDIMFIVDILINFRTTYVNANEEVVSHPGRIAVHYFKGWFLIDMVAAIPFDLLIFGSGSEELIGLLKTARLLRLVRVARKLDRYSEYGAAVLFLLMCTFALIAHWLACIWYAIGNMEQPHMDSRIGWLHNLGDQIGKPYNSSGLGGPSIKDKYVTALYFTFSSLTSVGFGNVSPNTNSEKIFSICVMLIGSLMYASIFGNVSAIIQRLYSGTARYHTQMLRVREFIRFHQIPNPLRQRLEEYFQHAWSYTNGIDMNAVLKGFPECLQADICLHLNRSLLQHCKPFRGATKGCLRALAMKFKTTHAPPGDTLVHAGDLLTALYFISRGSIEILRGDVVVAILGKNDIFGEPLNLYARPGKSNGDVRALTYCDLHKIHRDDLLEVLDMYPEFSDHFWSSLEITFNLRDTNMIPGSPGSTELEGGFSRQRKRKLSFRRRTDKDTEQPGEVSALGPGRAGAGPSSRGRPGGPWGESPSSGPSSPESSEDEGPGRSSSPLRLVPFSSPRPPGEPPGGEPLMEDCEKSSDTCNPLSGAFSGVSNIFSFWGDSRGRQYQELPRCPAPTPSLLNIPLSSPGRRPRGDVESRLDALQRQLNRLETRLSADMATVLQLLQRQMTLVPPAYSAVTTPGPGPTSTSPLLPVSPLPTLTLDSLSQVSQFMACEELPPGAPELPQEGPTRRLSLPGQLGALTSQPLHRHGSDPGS

[21] = target: T2, Cytochrome P450 3A4; experiment: Inhibition of CYP3A4 (unknown origin) using testosterone as substrate measured after 30 mins; type: ADME
[22] = target: Cytochrome P450 2D6 (Homo sapiens, UniProt P10635); experiment: Inhibition of CYP2D6 (unknown origin) measured after 30 mins; type: ADME
Chain of Cytochrome P450 2D6 (P10635 whole entry): as the sequence (P10635 whole entry) above

[23] = AUC (0 to 24 hrs) in human (healthy individuals) at 10 mg, single oral dose; type: ADME; conditions: in vivo

Chain of CYP2C9 (P11712 whole entry): as the sequence (P11712 whole entry) above

Cc1cccnc1-c1ccc(-c2n[nH]c3ncc(-c4ccc5c(c4)CC[C@@H](N4C6COCC4C6)CC5)cc23)nc1
inhibition at 0.5 h, 30 µM [1]: 10%
Cmax [2]: 153 ng/mL
Cmax [3]: 3 ng/mL
clearance [4]: 10.8 mL/min/kg
AUC(0-t) [5]: 2090 ng·h/mL
Tmax [6]: 8 h
Papp A→B [7]: 1.7 ×10⁻⁶ cm/s
IC50 [8]: 17 µM
IC50 [9]: > 100 µM
inhibition at 0.5 h, 30 µM [10]: 16%
AUC(0-t) [11]: 2580 ng·h/mL
AUC(0-t) [12]: 7490 ng·h/mL
IC50 [13]: 17 µM
Cmax [14]: 12 ng/mL
inhibition at 0.5 h, 30 µM [15]: 0%
AUC(0-t) [16]: 180 ng·h/mL
Activity [17]: Active
IC50 [18]: 91 µM
Tmax [19]: 8 h
inhibition at 10 µM [20]: 56%
IC50 [21]: 5.6 µM
IC50 [22]: 11 µM
AUC(0-t) [23]: 55 ng·h/mL
